In PMC6447865, “Novel Group of Imidazole Derivatives as Atypical Selective Cyclooxygenase-2 Inhibitors: Design, Synthesis and Biological Evaluation” (Iranian Journal of Pharmaceutical Research : IJPR, 2018):

How the values were obtained:
COX-2 enzyme = molecular target: T1, COX-2 enzyme (Homo sapiens, UniProt P35354); assay: biochemical; conditions: for IC50: mean of two values, enzyme incubated with inhibitor 2 min, pH 8.0, 25 °C, arachidonic acid substrate, absorbance 590 nm; for COX-2 S.I. (in-vitro COX-2 selectivity index, COX-1/COX-2): ratio IC50 COX-1 / IC50 COX-2
T1 construct: purchased Cayman 701050
T1 sequence (P35354 18-604): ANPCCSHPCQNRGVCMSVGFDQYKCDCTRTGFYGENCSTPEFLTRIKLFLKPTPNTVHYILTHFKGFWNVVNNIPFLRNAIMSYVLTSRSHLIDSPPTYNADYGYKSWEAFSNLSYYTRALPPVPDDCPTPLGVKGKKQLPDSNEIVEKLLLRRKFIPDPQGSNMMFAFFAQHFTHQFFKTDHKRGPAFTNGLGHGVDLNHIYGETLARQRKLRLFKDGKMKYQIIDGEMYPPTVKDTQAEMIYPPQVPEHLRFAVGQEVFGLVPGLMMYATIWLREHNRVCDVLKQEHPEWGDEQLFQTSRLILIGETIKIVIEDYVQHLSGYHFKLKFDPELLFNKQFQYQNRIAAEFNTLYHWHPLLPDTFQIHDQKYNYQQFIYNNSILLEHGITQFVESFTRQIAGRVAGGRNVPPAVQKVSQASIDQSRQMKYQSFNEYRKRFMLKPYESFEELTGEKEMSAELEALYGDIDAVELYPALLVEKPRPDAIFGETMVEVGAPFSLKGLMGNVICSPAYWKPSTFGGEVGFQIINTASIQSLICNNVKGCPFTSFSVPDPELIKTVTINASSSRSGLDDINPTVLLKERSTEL
Experimental: (§1) All test samples were dissolved in DMSO and absorbance was read at 590 nm. The IC50 amounts of the novel compounds were analyzed using nonlinear regression with Dos-response inhibition parameter by the activity base software package (Program Prism, Graph Pad, SanDiego, CA).

COX-1 enzyme = molecular target: T2, COX-1 enzyme (Ovis aries, UniProt P05979); assay: biochemical; conditions: mean of two values; enzyme incubated with inhibitor 2 min, pH 8.0, 25 °C; arachidonic acid substrate; absorbance 590 nm
T2 construct: purchased Cayman 701050
T2 sequence (P05979 25-600): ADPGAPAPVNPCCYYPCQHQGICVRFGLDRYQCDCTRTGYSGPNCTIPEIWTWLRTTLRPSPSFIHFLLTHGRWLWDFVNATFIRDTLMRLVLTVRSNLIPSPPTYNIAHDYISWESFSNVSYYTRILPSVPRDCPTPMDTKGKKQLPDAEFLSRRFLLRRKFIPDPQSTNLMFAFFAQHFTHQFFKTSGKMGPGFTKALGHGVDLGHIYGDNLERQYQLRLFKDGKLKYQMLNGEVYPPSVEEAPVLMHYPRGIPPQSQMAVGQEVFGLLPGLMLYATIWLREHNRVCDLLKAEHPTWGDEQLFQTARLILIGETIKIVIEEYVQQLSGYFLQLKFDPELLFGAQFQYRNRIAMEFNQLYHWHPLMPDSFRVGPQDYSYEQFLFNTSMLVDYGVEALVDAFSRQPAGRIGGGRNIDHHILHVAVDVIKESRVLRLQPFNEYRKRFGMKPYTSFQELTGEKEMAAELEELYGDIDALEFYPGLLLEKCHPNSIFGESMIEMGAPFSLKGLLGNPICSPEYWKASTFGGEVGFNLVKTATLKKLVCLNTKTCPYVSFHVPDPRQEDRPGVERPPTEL
Experimental: as §1

Row | IC50 (COX-2 enzyme) [µM] | COX-2 S.I. (in-vitro COX-2 selectivity index, COX-1/COX-2) (COX-2 enzyme) | IC50 (COX-1 enzyme) [µM] | melting point [°C] | Compound
1 | 3 | 26 | 78 | 177 | CS(=O)(=O)c1ncc(CNc2ccc([N+](=O)[O-])cc2)n1Cc1ccccc1 [Compound 5d, N-((1-benzyl-2-(methylsulfonyl)-1H-imidazol-5-yl)methyl)-4-nitrobenzamine]
2 | 3.6 | 38 | 138 | 142 | CS(=O)(=O)c1ncc(CNc2ccc(Cl)cc2)n1Cc1ccccc1 [Compound 5e, N-((1-benzyl-2-(methylsulfonyl)-1H-imidazol-5-yl)methyl)-4-chlorobenzamine]

More lines, now with the values behind:

Row | Compound | IC50 (COX-2 enzyme) [µM] | COX-2 S.I. (in-vitro COX-2 selectivity index, COX-1/COX-2) (COX-2 enzyme) | IC50 (COX-1 enzyme) [µM] | melting point [°C]
3 | CS(=O)(=O)c1ncc(CNc2ccccc2)n1Cc1ccccc1 [Compound 5a, N-((1-benzyl-2-(methylsulfonyl)-1H-imidazol-5-yl)methyl)benzamine] | 3.2 | 27 | 87 | 114 to 115
4 | COc1ccc(NCc2cnc(S(C)(=O)=O)n2Cc2ccccc2)cc1 [Compound 5b, N-((1-benzyl-2-(methylsulfonyl)-1H-imidazol-5-yl)methyl)-4-methoxybenzamine] | 0.71 | 115 | 82 | 152
5 | CS(=O)(=O)c1ncc(CNc2ccc(Br)cc2)n1Cc1ccccc1 [Compound 5c, N-((1-benzyl-2-(methylsulfonyl)-1H-imidazol-5-yl)methyl)-4-bromobenzamine] | 2.8 | 28 | 78 | 155
